Measurements reported in patent publication US10517926B2, “Oligopeptide having proinflammatory cytokine secretion-inhibiting activity” (Osaka University, priority 2015, dated 2019).

What was measured:
Format in all cases: cell-based, mouse
[1] = system: neuron-glia mixed culture; experiment: Neuronal cell death by LPS in neuron-glia mixed culture system (MAP2 staining); conditions: B group; MHP1 50 μg/ml pretreatment, LPS 10 μg/ml, 5 days; FIG. 6
Method: (§1) Neuronal tissue (a mixture of neurons and glial cells) was removed from a mouse fetus 21 days after fertilization (21st fetal day), and cultured in Neurobasal medium (+B-27, +5% HS) for 9 days. Then, the cells were divided into 3 groups (A to C groups), and subjected to the following treatments.
The cells were cultured for 24 hours after the medium was changed to a medium (Neurobasal A/N2 supplement) containing MHP1 (final concentration: 50 μg/ml). Then, LPS (final concentration: 10 μg/ml) was added to the medium, and the cells were further cultured for 5 days. After culture, immunostaining was performed according to a general method using an antibody (M4403, produced by Sigma-Aldrich) against MAP2, which was a neuronal cell marker, as a primary antibody (primary antibody: 1/1000 dilution, and second antibody (A 11001, produced by Invitrogen): 1/1000 dilution). The staining images were observed, and the ratio of the area of the stained region (i.e., the region occupied by the survival neurons) to the culture dish area was calculated.

[2] = system: RAW264.7 cells; experiment: Osteoclast-related mRNA expression (NFATc1, ACP5) by real-time RT-PCR; conditions: MHP1 100 μg/ml, 3 days, FIG. 12A, 12B
Method: (§2) It has recently been reported that the administration of RANKL protein to mice induces the activation of osteoclasts. Accordingly, the influence of the RANKL peptide on osteoclasts was examined. The specific examination procedures were as follows. MHP1 (final concentration: 100 μg/ml) or RANKL protein (final concentration: 10 ng/ml) was added to a medium (DMEM medium (+4% FBS)) in which RAW264.7 cells were cultured, and the cells were collected after 10 minutes and 3 days.
(§3) For the samples collected after 10 minutes, nuclear proteins of the cells were extracted using the Nuclear Extract Kit (Active Motif), and the degree of NFκB (p65) activation was measured by the TransAM NFkB p65 Kit (Active Motif). On the other hand, for the samples collected after 3 days, the mRNA expression levels of NFATc1 and ACP5 were analyzed by real-time RT-PCR.

[3] = system: RANK knockdown RAW264.7 cells; experiment: RANK dependency: cytokine secretion in RANK knockdown cells; conditions: for secretion of IL-6: FIG. 10; for secretion of TNFα: FIG. 11
Method: RAW264.7 cells were suspended in a DMEM medium (+10% FBS), seeded on a 24-well plate, and cultured at 37° C. at a CO2 concentration of 5%. To 100 μl of serum-free DMEM medium, 37.5 ng (final concentration: 5 nM) of siRNA against RANK (a double strand of the sequence represented by SEQ ID NO: 17 and the sequence represented by SEQ ID NO: 18, produced by GeneDesign) or 37.5 ng (final concentration: 5 nM) of control siRNA (a double strand of the sequence represented by SEQ ID NO: 19 and the sequence represented by SEQ ID NO: 20, produced by GeneDesign), and 3 μl of HiPerFect Transfection Reagent (QIAGEN) were added, and the resultant was allowed to stand at room temperature for 10 minutes. This was added to the RAW264.7 cell culture medium. After culture at 37° C. at a CO^2 concentration of 5% for 24 hours, the cells were collected. A protein extract was obtained from the cells by a standard method, and RANK in this extract was detected at a dilution concentration of 1/100 by the Western blotting method (anti-RANK antibody: anti-mRANK (Cat. No. AF692), produced by R&D Systems). […] FIG. 9 confirmed that RANK was knocked down by siRNA against RANK (comparison between lane 2 and lane 3).
MHP1 and LPS were made to act on RANK knockdown cells, as in Example 3, and the concentrations of IL-6 and TNFα in the medium were measured by the ELISA method. FIGS. 10 and 11 show the results.

[4] = system: NFκB (p65); experiment: NFκB (p65) activation (TransAM NFkB p65 Kit); conditions: RAW264.7 cells; MHP1 100 μg/ml, 10 minutes; FIG. 12C
Method: as §2, §3

[5] = system: RAW264.7 cells; experiment: Proinflammatory cytokine secretion inhibition, LPS-stimulated macrophage cells (ELISA); conditions: MHP1 30, 50 or 100 μg/ml, LPS 2 ng/ml, 24 hours
Method: RAW264.7 cells (mouse-derived macrophage cell line) were cultured in a DMEM medium (+4% FBS) containing MHP1 (final concentration: 30, 50, or 100 μg/ml) and LPS (final concentration: 2 ng/ml) for 24 hours by a standard method. After culture, the concentrations of IL-6 and TNFα in the medium were measured by the ELISA method. The results are shown in FIG. 3 (IL-6) and FIG. 4 (TNFα).

[6] = system: neuron-glia mixed culture; experiment: TNFα secretion by LPS in neuron-glia mixed culture system
Method: as §1
The cells were cultured for 24 hours after the medium was changed to a medium (Neurobasal A/N2 supplement) containing MHP1 (final concentration: 1, 10, 30, or 50 μg/ml). Then, LPS (final concentration: 10 μg/ml) was added to the medium, and the cells were further cultured for 24 hours. After culture, the concentration of TNFα in the medium was measured by the ELISA method.
The cells were cultured for 24 hours after the medium was changed to a medium (Neurobasal A/N2 supplement) containing MHP1 (final concentration: 30 or 50 μg/ml) and LPS (final concentration: 10 μg/ml). After culture, the concentration of TNFα in the medium was measured by the ELISA method.

[7] = system: MG6 cells; experiment: M1 shift of microglial cells by LPS (FACS); conditions: MHP1 100 μg/ml, LPS 2 ng/ml, 24 hours; FIG. 8
Method: MG6 cells (mouse-derived microglial cell line) were cultured in a DMEM medium (+4% FBS) containing MHP1 (final concentration: 100 μg/ml) or RANKL protein (Recombinant Murin sRANKL Ligand (Cat No. 315-11): produced by Peprotech) (final concentration: 10 ng/ml), and LPS (final concentration: 2 ng/ml) for 24 hours by a standard method. After culture, the cells were washed with PBS, and Fc receptor blocking was performed using mouse IgG. Thereafter, F4/80-FITC (microglia marker antibody) and CD206-APC (M2 marker antibody) were added, and reacted at 4° C. for 30 minutes in a dark place. After the reaction, the cells were washed with PBS, and the percentage of microglia marker-positive and M2 marker-positive (M2 state) cells, and the percentage of microglia marker-positive and M2 marker-negative (M1 state) cells were measured by FACS analysis (FACSCanto II, produced by BD Biosciences).

[8] = RANK knockdown cells (siRNA against RANK)
[9] = control siRNA-introduced RAW264.7 cells

“LMVYVVKTSIKIPSSHNLMKGGSTKNWSGN (listed as Mus musculus) [MHP1]” was tested, and the “neuronal cell death by LPS” value [1] was “suppressed”, the “expression of osteoclast-related mRNA (NFATc1, ACP5)” value [2] was “did not promote” and the “secretion of IL-6” value [3, 8] was “not inhibited”. For the same sequence, the “secretion of TNFα” value [3, 8] was “not inhibited”, the “secretion of IL-6” value [3, 9] was “inhibited” and the “secretion of TNFα” value [3, 9] was “inhibited”. The “NFκB (p65) activation” value [4] was “slightly activated”, the “increase in the amount of IL-6 secretion by LPS” value ([5]; FIG. 3) was “suppressed” and the “increase in the amount of TNFα secretion by LPS” value ([5]; FIG. 4) was “suppressed”. The “increase in the amount of TNFα secretion by LPS” value ([6]; pretreatment (A group), MHP1 1, 10, 30 or 50 μg/ml 24 hours before LPS 10 μg/ml, FIG. 5) was “suppressed”, the “increase in the amount of TNFα secretion by LPS” value ([6]; simultaneous treatment (C group), MHP1 30 or 50 μg/ml with LPS 10 μg/ml, 24 hours, FIG. 7) was “suppressed” and the “M1 shift caused by LPS” value [7] was “suppressed”.
